Experimental data from the supplement of paper PMC6004109.

Assays:
Settings in all cases: temperature: 37 °C
[1] = tested on: Candida glabrata ZIM 2385 (RPMI); assay: Bliss independence sum of statistically significant ΔE (measured minus predicted growth inhibition) over checkerboard surface (fraction (sum of ΔE; 1 = 100%)); higher = more synergy
[2] = tested on: Candida glabrata ZIM 2369 (RPMI); assay: as above
[3] = tested on: Candida glabrata ZIM 2382 (RPMI); assay: as above
[4] = tested on: Saccharomyces cerevisiae ZIM 2255 (RPMI); assay: as above
[5] = tested on: Saccharomyces cerevisiae ZIM 2566 (RPMI); assay: as above
[6] = tested on: Candida glabrata ZIM 2365 (RPMI); assay: as above
[7] = tested on: Candida glabrata ZIM 2389 (RPMI); assay: as above
[8] = tested on: Saccharomyces cerevisiae ZIM 2247 (RPMI); assay: as above
[9] = tested on: Candida glabrata ZIM 2344 (RPMI); assay: as above
[10] = tested on: Saccharomyces cerevisiae ZIM 2558 (RPMI); assay: as above
[11] = tested on: Saccharomyces cerevisiae ZIM 2269 (RPMI); assay: as above
[12] = tested on: Candida glabrata ZIM 2385 (RPMI); assay: FICI minimum (fractional inhibitory concentration index, Loewe) (dimensionless); higher = less synergy / more antagonism
Protocol: (§1)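 CLSI M27-A3 checkerboard broth microdilution of an immunomodulatory drug (or amoxicillin) combined with an antifungal against S. cerevisiae and C. glabrata isolates. Growth was read as OD600 after incubation at 37 °C (48 h for the reported MICs). Reported quantities are the FICI (Loewe: MIC50 for azoles and immunomodulators, MIC90 for AMB; ≤0.5 synergy, ≥4 antagonism), as minimum and maximum over the surface, and the Bliss-independence sum of statistically significant ΔE (positive = synergy). Clinical isolates were tested in RPMI; C. glabrata ATCC 2001 and its pdr1Δ mutant were tested in YPD.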

[13] = tested on: Candida glabrata ZIM 2369 (RPMI); assay: as above
Protocol: as §1

[14] = tested on: Candida glabrata ZIM 2382 (RPMI); assay: as above
Protocol: as §1

[15] = tested on: Saccharomyces cerevisiae ZIM 2255 (RPMI); assay: as above
Protocol: as §1

[16] = tested on: Saccharomyces cerevisiae ZIM 2566 (RPMI); assay: as above
Protocol: as §1

[17] = tested on: Candida glabrata ZIM 2365 (RPMI); assay: as above
Protocol: as §1

[18] = tested on: Candida glabrata ZIM 2389 (RPMI); assay: as above
Protocol: as §1

[19] = tested on: Saccharomyces cerevisiae ZIM 2247 (RPMI); assay: as above
Protocol: as §1

[20] = tested on: Candida glabrata ZIM 2344 (RPMI); assay: as above
Protocol: as §1

[21] = tested on: Saccharomyces cerevisiae ZIM 2558 (RPMI); assay: as above
Protocol: as §1

[22] = tested on: Saccharomyces cerevisiae ZIM 2269 (RPMI); assay: as above
Protocol: as §1

[23] = tested on: Candida glabrata ZIM 2385 (RPMI); assay: FICI maximum (fractional inhibitory concentration index, Loewe) (dimensionless); higher = less synergy / more antagonism
Protocol: as §1

[24] = tested on: Candida glabrata ZIM 2369 (RPMI); assay: as above
Protocol: as §1

[25] = tested on: Candida glabrata ZIM 2382 (RPMI); assay: as above
Protocol: as §1

[26] = tested on: Saccharomyces cerevisiae ZIM 2255 (RPMI); assay: as above
Protocol: as §1

[27] = tested on: Saccharomyces cerevisiae ZIM 2566 (RPMI); assay: as above
Protocol: as §1

[28] = tested on: Candida glabrata ZIM 2365 (RPMI); assay: as above
Protocol: as §1

[29] = tested on: Candida glabrata ZIM 2389 (RPMI); assay: as above
Protocol: as §1

[30] = tested on: Saccharomyces cerevisiae ZIM 2247 (RPMI); assay: as above
Protocol: as §1

[31] = tested on: Candida glabrata ZIM 2344 (RPMI); assay: as above
Protocol: as §1

[32] = tested on: Saccharomyces cerevisiae ZIM 2558 (RPMI); assay: as above
Protocol: as §1

[33] = tested on: Saccharomyces cerevisiae ZIM 2269 (RPMI); assay: as above
Protocol: as §1

[34] = tested on: Candida glabrata ATCC 2001 (YPD); assay: Bliss independence sum of statistically significant ΔE (measured minus predicted growth inhibition) over checkerboard surface (fraction (sum of ΔE; 1 = 100%)); higher = more synergy
[35] = tested on: Candida glabrata ATCC 2001 (YPD); assay: FICI minimum (fractional inhibitory concentration index, Loewe) (dimensionless); higher = less synergy / more antagonism
Protocol: as §1

[36] = tested on: Candida glabrata ATCC 2001 (YPD); assay: FICI maximum (fractional inhibitory concentration index, Loewe) (dimensionless); higher = less synergy / more antagonism
Protocol: as §1

[37] = tested on: Saccharomyces cerevisiae ZIM 2260 (RPMI); assay: Bliss independence sum of statistically significant ΔE (measured minus predicted growth inhibition) over checkerboard surface (fraction (sum of ΔE; 1 = 100%)); higher = more synergy
[38] = tested on: Saccharomyces cerevisiae ZIM 2260 (RPMI); assay: FICI minimum (fractional inhibitory concentration index, Loewe) (dimensionless); higher = less synergy / more antagonism
Protocol: as §1

[39] = tested on: Saccharomyces cerevisiae ZIM 2260 (RPMI); assay: FICI maximum (fractional inhibitory concentration index, Loewe) (dimensionless); higher = less synergy / more antagonism
Protocol: as §1

| SMILES | Bliss independence sum [1] | Bliss independence sum [2] | Bliss independence sum [3] | Bliss independence sum [4] | Bliss independence sum [5] | Bliss independence sum [6] | Bliss independence sum [7] | Bliss independence sum [8] | Bliss independence sum [9] | Bliss independence sum [10] | Bliss independence sum [11] | FICI minimum [12] | FICI minimum [13] | FICI minimum [14] | FICI minimum [15] | FICI minimum [16] | FICI minimum [17] | FICI minimum [18] | FICI minimum [19] | FICI minimum [20] | FICI minimum [21] | FICI minimum [22] | FICI maximum [23] | FICI maximum [24] | FICI maximum [25] | FICI maximum [26] | FICI maximum [27] | FICI maximum [28] | FICI maximum [29] | FICI maximum [30] | FICI maximum [31] | FICI maximum [32] | FICI maximum [33] | Bliss independence sum [34] | FICI minimum [35] | FICI maximum [36] | Bliss independence sum [37] | FICI minimum [38] | FICI maximum [39] |
| --- | --- | --- | --- | --- | --- | --- | --- | --- | --- | --- | --- | --- | --- | --- | --- | --- | --- | --- | --- | --- | --- | --- | --- | --- | --- | --- | --- | --- | --- | --- | --- | --- | --- | --- | --- | --- | --- | --- | --- |
| CC1(C)S[C@@H]2[C@H](NC(=O)[C@H](N)c3ccc(O)cc3)C(=O)N2[C@H]1C(=O)O [amoxicillin] + OC(Cn1cncn1)(Cn1cncn1)c1ccc(F)cc1F [fluconazole] | 1.92 | 1.02 | 0.34 | -2.93 | 0.455 | -0.019 | 2.98 | -1.44 | 0.963 | 1.93 | -1.87 | 1.02 | 1.01 | 1.01 | 2.01 | 0.516 | 1.01 | 1.02 | 1.02 | 0.508 | 0.508 | 1.03 | 1.5 | 1.25 | 1.25 | 2.12 | 1.25 | 1.25 | 2.25 | 2.12 | 0.75 | 1.25 | 2 |  |  |  |  |  |  |
| COc1c(C)c2c(c(O)c1C/C=C(\C)CCC(=O)O)C(=O)OC2 [mycophenolic acid] + CC(=O)N1CCN(c2ccc(OCC3COC(Cn4ccnc4)(c4ccc(Cl)cc4Cl)O3)cc2)CC1 [ketoconazole] |  |  |  |  |  |  |  |  |  |  |  |  |  |  |  |  |  |  |  |  |  |  |  |  |  |  |  |  |  |  |  |  |  | -2.13 | 1.25 | 4.12 |  |  |  |
| COc1c(C)c2c(c(O)c1C/C=C(\C)CCC(=O)O)C(=O)OC2 [mycophenolic acid] + CCC(C)n1ncn(-c2ccc(N3CCN(c4ccc(OCC5COC(Cn6cncn6)(c6ccc(Cl)cc6Cl)O5)cc4)CC3)cc2)c1=O [itraconazole] | 3.12 | -0.825 | 0.427 | 2.31 |  | 0.327 | 4.83 | -0.0362 | 10 | -4.07 | 0.69 | 0.508 | 1.01 | 0.508 | 0.517 |  | 0.516 | 0.508 | 1.02 | 0.174 | 2.01 | 1.03 | 1.02 | 2.25 | 0.75 | 1.13 |  | 4.12 | 1.25 | 2.53 | 1.62 | 4.25 | 1.25 |  |  |  | -2.11 | 1 | 2.16 |
| COc1c(C)c2c(c(O)c1C/C=C(\C)CCC(=O)O)C(=O)OC2 [mycophenolic acid] + CC[C@@H]([C@H](C)O)n1ncn(-c2ccc(N3CCN(c4ccc(OC[C@@H]5CO[C@@](Cn6cncn6)(c6ccc(F)cc6F)C5)cc4)CC3)cc2)c1=O [posaconazole] |  |  |  |  |  |  |  |  |  |  |  |  |  |  |  |  |  |  |  |  |  |  |  |  |  |  |  |  |  |  |  |  |  | -3.21 | 1.5 | 4.12 |  |  |  |
| COc1c(C)c2c(c(O)c1C/C=C(\C)CCC(=O)O)C(=O)OC2 [mycophenolic acid] + C[C@@H](c1ncncc1F)[C@](O)(Cn1cncn1)c1ccc(F)cc1F [voriconazole] |  |  |  |  |  |  |  |  |  |  |  |  |  |  |  |  |  |  |  |  |  |  |  |  |  |  |  |  |  |  |  |  |  | -2.31 | 1.06 | 2.5 |  |  |  |
